Measurements taken from US20140271604A1, “HDAC Inhibitor Polymorphic Forms and Methods of Use” (priority 2013, published 2014).
One block for each compound: values may come before it.

Key:
[1] = Stability study in climate chamber (48-72 h, 40° C./75% RH), form assigned by XRPD; conditions: for XRPD Form c: form assigned after the stability studies / XRPD Form b: form assigned after the stability studies: at 40° C./75% RH; for XRPD Form b: form assigned after the stability studies: samples from anti-solvent addition, label = form before stability; for Stability after storage in a climate chamber / XRPD pattern following storage exposure in the climate chamber: 48 to 72 hours at 40 degrees centigrade and 75% relative humidity
Protocol: Solubility assessment experiments were carried out in a variety of solvents followed by storage in a climate chamber for 48 to 72 hours at 40 degrees centigrade and 75% relative humidity.

[2] = Storage of samples under ambient conditions, form assigned by XRPD; format: physicochemical
[3] = 48-72 H, samples from cooling-evaporative crystallization, Table 6, label = form after recrystallization
[4] = 1-1.5 weeks ambient, cooling-evaporative crystallization, Table 6, label = form after recrystallization
[5] = 48-72 H, samples from slurry conversion, Table 9, label = form after slurry
[6] = 46-72 H, samples from solvent-drop grinding, Table 8, label = form after grinding
[7] = 1-1.5 weeks ambient, cooling-evaporative crystallization, Table 7, label = form after recrystallization
[8] = 1.5-2 weeks ambient, solvent-drop grinding, Table 8, label = form after grinding
[9] = 48-72 H, samples from cooling-evaporative crystallization, Table 7, label = form after recrystallization
[10] = 1-1.5 weeks ambient, slurry conversion, Table 9, label = form after slurry

SMILES: CC(C)C(C(=O)Nc1ccc(C(=O)NO)cc1)c1ccccc1 (stereo not shown) [Form A2 + Am]
XRPD Form c: form assigned after the stability studies [1, 3]: Form Z_wet** | XRPD Form b: form assigned after storage under ambient conditions [2, 4]: Form U1 + Am

SMILES: CC(C)C(C(=O)Nc1ccc(C(=O)NO)cc1)c1ccccc1 (stereo not shown) [Form A3 + Am]
XRPD Form c: form assigned after the stability studies [1, 5]: Form A

SMILES: CC(C)C(C(=O)Nc1ccc(C(=O)NO)cc1)c1ccccc1 (stereo not shown) [Form A7 + Am]
XRPD Form c: form assigned after the stability studies [1, 5]: Form A + Am* | XRPD Form b: form assigned after storage under ambient conditions [2, 10]: Form A3 + Am*

SMILES: CC(C)C(C(=O)Nc1ccc(C(=O)NO)cc1)c1ccccc1 (stereo not shown) [Form A + Form F1]
XRPD Form c: form assigned after the stability studies [1, 6]: Form A | XRPD Form b: form assigned after storage under ambient conditions [2, 8]: Form A

SMILES: CC(C)C(C(=O)Nc1ccc(C(=O)NO)cc1)c1ccccc1 (stereo not shown) [Form A + Form H1]
XRPD Form b: form assigned after the stability studies ([1]; 48-72 H, Table 3): Form A

SMILES: CC(C)C(C(=O)Nc1ccc(C(=O)NO)cc1)c1ccccc1 (stereo not shown) [Form A + Form J1]
XRPD Form c: form assigned after the stability studies [1, 9]: Form J1

SMILES: CC(C)C(C(=O)Nc1ccc(C(=O)NO)cc1)c1ccccc1 (stereo not shown) [Form A + Form V]
XRPD Form c: form assigned after the stability studies [1, 6]: Form A | XRPD Form b: form assigned after storage under ambient conditions [2, 8]: Form A

SMILES: CC(C)[C@H](C(=O)Nc1ccc(C(=O)NO)cc1)c1ccccc1 [Form A_min + Form T]
XRPD Form c: form assigned after the stability studies [1, 6]: Form A5a

SMILES: CC(C)[C@H](C(=O)Nc1ccc(C(=O)NO)cc1)c1ccccc1 [Form A_minus, (S)—N-hydroxy-4-(3-methyl-2-phenylbutanamido)benzamide]
XRPD Form b: form assigned after the stability studies ([1]; 48-72 H, Table 3): Form A_minus | Stability after storage in a climate chamber [1]: exhibited a particular degree of stability

SMILES: CC(C)C(C(=O)Nc1ccc(C(=O)NO)cc1)c1ccccc1 (stereo not shown) [Form B1 + Form F5]
XRPD Form b: form assigned after the stability studies ([1]; 48-72 H, Table 3): Form A

SMILES: CC(C)[C@H](C(=O)Nc1ccc(C(=O)NO)cc1)c1ccccc1 [Form D1_wet]
XRPD Form b: form assigned after the stability studies ([1]; 48-72 H, Table 3): Form D2 | XRPD Form c: form assigned after the stability studies [1, 3]: Form A_wet** | XRPD Form c: form assigned after the stability studies [1, 9]: Form A + Am* | XRPD Form b: form assigned after storage under ambient conditions [2, 4]: Form D1_wet** | XRPD Form b: form assigned after storage under ambient conditions [2, 7]: Form D1_wet

SMILES: CC(C)[C@H](C(=O)Nc1ccc(C(=O)NO)cc1)c1ccccc1 [Form F4_wet, (S)—N-hydroxy-4-(3-methyl-2-phenylbutanamido)benzamide]
XRPD Form c: form assigned after the stability studies [1, 5]: Form A + Am* | XRPD Form b: form assigned after storage under ambient conditions [2, 10]: Form A + Am*

SMILES: CC(C)[C@H](C(=O)Nc1ccc(C(=O)NO)cc1)c1ccccc1 [Form G_gel, (S)—N-hydroxy-4-(3-methyl-2-phenylbutanamido)benzamide]
XRPD Form b: form assigned after the stability studies ([1]; 48-72 H, Table 3): Form A + Am*

SMILES: CC(C)[C@H](C(=O)Nc1ccc(C(=O)NO)cc1)c1ccccc1 [Form K_wet]
XRPD Form c: form assigned after the stability studies [1, 3]: Form A | XRPD Form b: form assigned after storage under ambient conditions [2, 4]: Form A

SMILES: CC(C)[C@H](C(=O)Nc1ccc(C(=O)NO)cc1)c1ccccc1 [Form L2, (S)—N-hydroxy-4-(3-methyl-2-phenylbutanamido)benzamide]
Stability after storage in a climate chamber [1]: exhibited a particular degree of stability

SMILES: CC(C)[C@H](C(=O)Nc1ccc(C(=O)NO)cc1)c1ccccc1 [Form R, (S)—N-hydroxy-4-(3-methyl-2-phenylbutanamido)benzamide]
XRPD Form c: form assigned after the stability studies [1, 9]: Form A | XRPD Form b: form assigned after storage under ambient conditions [2, 7]: Form R

SMILES: CC(C)C(C(=O)Nc1ccc(C(=O)NO)cc1)c1ccccc1 (stereo not shown) [Form S + Am]
XRPD Form c: form assigned after the stability studies [1, 9]: Form A_plus

SMILES: CC(C)[C@H](C(=O)Nc1ccc(C(=O)NO)cc1)c1ccccc1 [Form T_wet, (S)—N-hydroxy-4-(3-methyl-2-phenylbutanamido)benzamide]
XRPD Form b: form assigned after the stability studies ([1]; 48-72 H, Table 5): Form A

SMILES: CC(C)C(C(=O)Nc1ccc(C(=O)NO)cc1)c1ccccc1 (stereo not shown) [Form W + Am]
XRPD Form b: form assigned after the stability studies ([1]; 48-72 H, Table 3): Form A + Form

Continued, in another order:

XRPD Form b: form assigned after the stability studies ([1]; 48-72 H, Table 3): Form A
SMILES: CC(C)[C@H](C(=O)Nc1ccc(C(=O)NO)cc1)c1ccccc1 [Form A2, (S)—N-hydroxy-4-(3-methyl-2-phenylbutanamido)benzamide]

XRPD Form c: form assigned after the stability studies [1, 6]: Form A | XRPD Form b: form assigned after storage under ambient conditions [2, 7]: Form L2 | XRPD Form b: form assigned after storage under ambient conditions [2, 8]: Form A
SMILES: CC(C)[C@H](C(=O)Nc1ccc(C(=O)NO)cc1)c1ccccc1 [Form A3, (S)—N-hydroxy-4-(3-methyl-2-phenylbutanamido)benzamide]

XRPD Form c: form assigned after the stability studies [1, 9]: Form A | XRPD Form b: form assigned after storage under ambient conditions ([2]; 1-1.5 weeks ambient, cooling-evaporative crystallization, Table 7, label = form after recrystallization, slurry in cyclohexane/cyclohexanone): Form B1_wet** | XRPD Form b: form assigned after storage under ambient conditions ([2]; 1-1.5 weeks ambient, cooling-evaporative crystallization, Table 7, label = form after recrystallization, slurry in cyclohexanone/tetrahydrofuran): Form R
SMILES: CC(C)[C@H](C(=O)Nc1ccc(C(=O)NO)cc1)c1ccccc1 [Form A4, (S)—N-hydroxy-4-(3-methyl-2-phenylbutanamido)benzamide]

XRPD Form c: form assigned after the stability studies [1, 6]: Form A5a | XRPD pattern following storage exposure in the climate chamber [1]: remained unchanged | XRPD Form b: form assigned after storage under ambient conditions [2, 8]: Form A5a
SMILES: CC(C)[C@H](C(=O)Nc1ccc(C(=O)NO)cc1)c1ccccc1 [Form A5a, (S)—N-hydroxy-4-(3-methyl-2-phenylbutanamido)benzamide]
Stability after storage in a climate chamber [1]: exhibited a particular degree of stability

XRPD Form c: form assigned after the stability studies [1, 9]: Form A_plus | XRPD Form b: form assigned after storage under ambient conditions [2, 7]: Form A7
SMILES: CC(C)[C@H](C(=O)Nc1ccc(C(=O)NO)cc1)c1ccccc1 [Form A7, (S)—N-hydroxy-4-(3-methyl-2-phenylbutanamido)benzamide]

XRPD Form c: form assigned after the stability studies [1, 9]: Form A | XRPD Form b: form assigned after storage under ambient conditions [2, 7]: Form A8
SMILES: CC(C)[C@H](C(=O)Nc1ccc(C(=O)NO)cc1)c1ccccc1 [Form A8, (S)—N-hydroxy-4-(3-methyl-2-phenylbutanamido)benzamide]

XRPD Form b: form assigned after the stability studies ([1]; 48-72 H, Table 3): Form A + Am* | XRPD Form b: form assigned after the stability studies ([1]; 48-72 H, Table 5): Form A | XRPD Form c: form assigned after the stability studies [1, 9]: Form A | XRPD Form c: form assigned after the stability studies [1, 5]: Form A | XRPD Form b: form assigned after storage under ambient conditions [2, 10]: Form A_wet**
SMILES: CC(C)[C@H](C(=O)Nc1ccc(C(=O)NO)cc1)c1ccccc1 [Form F1, (S)—N-hydroxy-4-(3-methyl-2-phenylbutanamido)benzamide]

XRPD Form c: form assigned after the stability studies [1, 9]: Form A | XRPD Form b: form assigned after storage under ambient conditions [2, 7]: Form A3
SMILES: CC(C)[C@H](C(=O)Nc1ccc(C(=O)NO)cc1)c1ccccc1 [Form F2, (S)—N-hydroxy-4-(3-methyl-2-phenylbutanamido)benzamide]

XRPD Form c: form assigned after the stability studies [1, 9]: Form A
SMILES: CC(C)[C@H](C(=O)Nc1ccc(C(=O)NO)cc1)c1ccccc1 [Form F3, (S)—N-hydroxy-4-(3-methyl-2-phenylbutanamido)benzamide]

XRPD Form c: form assigned after the stability studies [1, 3]: Form A | XRPD Form c: form assigned after the stability studies [1, 5]: Form A | XRPD Form b: form assigned after storage under ambient conditions [2, 4]: Form A | XRPD Form b: form assigned after storage under ambient conditions [2, 10]: Form A
SMILES: CC(C)[C@H](C(=O)Nc1ccc(C(=O)NO)cc1)c1ccccc1 [Form H1, (S)—N-hydroxy-4-(3-methyl-2-phenylbutanamido)benzamide]

XRPD Form c: form assigned after the stability studies [1, 6]: Form A | XRPD Form b: form assigned after storage under ambient conditions [2, 8]: Form A2
SMILES: CC(C)[C@H](C(=O)Nc1ccc(C(=O)NO)cc1)c1ccccc1 [Form H2, (S)—N-hydroxy-4-(3-methyl-2-phenylbutanamido)benzamide]

XRPD Form c: form assigned after the stability studies [1, 5]: Form J1 | XRPD pattern following storage exposure in the climate chamber [1]: remained unchanged | XRPD Form b: form assigned after storage under ambient conditions ([2]; 1-1.5 weeks ambient, cooling-evaporative crystallization, Table 7, label = form after recrystallization, slurry in dimethoxyethane/methanol): Form J2 | XRPD Form b: form assigned after storage under ambient conditions [2, 10]: Form J1 | XRPD Form b: form assigned after storage under ambient conditions [2, 8]: Form J1
SMILES: CC(C)[C@H](C(=O)Nc1ccc(C(=O)NO)cc1)c1ccccc1 [Form J1, (S)—N-hydroxy-4-(3-methyl-2-phenylbutanamido)benzamide]
Stability after storage in a climate chamber [1]: exhibited a particular degree of stability

XRPD Form c: form assigned after the stability studies [1, 3]: Form L1 | XRPD Form c: form assigned after the stability studies [1, 9]: Form L1 | XRPD Form b: form assigned after storage under ambient conditions [2, 4]: Form L1 | XRPD Form b: form assigned after storage under ambient conditions [2, 7]: Form L1
SMILES: CC(C)[C@H](C(=O)Nc1ccc(C(=O)NO)cc1)c1ccccc1 [Form L1, (S)—N-hydroxy-4-(3-methyl-2-phenylbutanamido)benzamide]
Stability after storage in a climate chamber [1]: exhibited a particular degree of stability

XRPD Form c: form assigned after the stability studies [1, 9]: Form M1 | XRPD pattern following storage exposure in the climate chamber [1]: remained unchanged | XRPD Form b: form assigned after storage under ambient conditions [2, 7]: Form M1
SMILES: CC(C)[C@H](C(=O)Nc1ccc(C(=O)NO)cc1)c1ccccc1 [Form M1, (S)—N-hydroxy-4-(3-methyl-2-phenylbutanamido)benzamide]
Stability after storage in a climate chamber [1]: exhibited a particular degree of stability

XRPD Form c: form assigned after the stability studies [1, 9]: Form M2 | XRPD pattern following storage exposure in the climate chamber [1]: remained unchanged | XRPD Form b: form assigned after storage under ambient conditions [2, 7]: Form M2
SMILES: CC(C)[C@H](C(=O)Nc1ccc(C(=O)NO)cc1)c1ccccc1 [Form M2, (S)—N-hydroxy-4-(3-methyl-2-phenylbutanamido)benzamide]
Stability after storage in a climate chamber [1]: exhibited a particular degree of stability
